Key:
[1] = mouse tail clip assay, cited from earlier work
[2] = animal models; cited from earlier work
[3] = molecular target: T1, PPARα (Mus musculus, UniProt P23204); assay: Partial protease (trypsin) digestion assay, PPARα; format: binding; conditions: 2, 20 and 100 μM AJA
T1 construct: expressed in transfected cells; host or cells: HEK293 / HEK293T
T1 sequence (P23204 1-468): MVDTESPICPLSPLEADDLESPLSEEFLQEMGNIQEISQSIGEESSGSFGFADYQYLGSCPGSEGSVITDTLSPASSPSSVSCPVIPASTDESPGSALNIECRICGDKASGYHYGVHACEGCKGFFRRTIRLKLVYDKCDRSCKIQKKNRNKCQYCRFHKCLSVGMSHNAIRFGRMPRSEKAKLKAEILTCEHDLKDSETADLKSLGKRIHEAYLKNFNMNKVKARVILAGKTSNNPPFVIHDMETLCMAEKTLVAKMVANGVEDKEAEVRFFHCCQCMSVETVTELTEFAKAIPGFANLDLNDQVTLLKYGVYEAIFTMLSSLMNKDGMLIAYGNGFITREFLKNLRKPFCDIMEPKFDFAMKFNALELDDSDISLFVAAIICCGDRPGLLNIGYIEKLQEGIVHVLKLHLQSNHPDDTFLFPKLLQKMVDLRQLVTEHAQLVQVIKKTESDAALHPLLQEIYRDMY
Protocol: (§1) Partial protease digestion was carried out as described by Leng et. al. (J Steroid Biochem Mol Biol 46:643-61, 1993). PPAR proteins were made by in vitro transcription/translation reactions in reticulocyte lysate according to the manufacture's instructions (Promega). AJA, GW347845, or vehicle alone was incubated with the 35S-labeled PPARs at room temperature for one hour before trypsin digestion. Reactions were stopped by boiling in SDS-containing sample buffer, and lysates were subjected to SDS-PAGE and autoradiography.
(§2) The PPAR proteins were synthesized and labeled with ^35S-methionine in reticulocyte lysate and incubated with AJA, GW347845, or vehicle alone at room temperature for one hour before trypsin digestion. The reactions were terminated by boiling in SDS-containing protein sample buffer. The proteolytic patterns of PPAR proteins were then analyzed by SDS-PAGE and autoradiography, and compared with vehicle-treated control samples.
The AJA concentrations required to protect PPARγ from trypsin digestion were further measured.

[4] = molecular target: T2, mPPARγ1 (Mus musculus, UniProt P37238); assay: Partial protease (trypsin) digestion assay, PPARγ; format: binding
T2 construct: made in house; host or cells: reticulocyte lysate in vitro transcription/translation (Promega) from pCMX-mPPARγ1
T2 sequence (P37238 1-475 isoform P37238-2): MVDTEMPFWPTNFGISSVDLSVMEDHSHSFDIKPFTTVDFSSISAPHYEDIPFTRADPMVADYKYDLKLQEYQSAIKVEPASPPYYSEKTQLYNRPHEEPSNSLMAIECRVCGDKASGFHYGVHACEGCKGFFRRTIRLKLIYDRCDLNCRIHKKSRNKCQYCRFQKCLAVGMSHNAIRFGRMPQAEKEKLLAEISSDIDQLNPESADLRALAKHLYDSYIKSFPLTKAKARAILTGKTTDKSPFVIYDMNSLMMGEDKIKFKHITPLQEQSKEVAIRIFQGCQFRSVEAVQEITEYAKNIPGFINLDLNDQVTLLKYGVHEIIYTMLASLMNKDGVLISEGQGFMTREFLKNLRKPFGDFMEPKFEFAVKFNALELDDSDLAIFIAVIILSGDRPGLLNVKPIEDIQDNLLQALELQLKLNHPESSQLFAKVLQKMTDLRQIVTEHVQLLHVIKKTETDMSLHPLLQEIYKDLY
Protocol: as §1
To determine if AJA can bind to PPARγ, in vitro translated ^35S-labeled mPPARγ1 was incubated with AJA or a carrier vehicle before trypsin digestion. To test if AJA binds to PPARs, partial proteinase digestion assays were conducted as described previously (Leng et al., J Steroid Biochem Mol Biol 46:643-61, 1993). […] Such conformational change can be detected by limited proteinase digestion based on alteration of the accessibility of proteolytic sites on the surface of the receptors.
as §2, with “The reactions were terminated by boiling in SDS-containing protein sample buffer.” left out, “samples. […]” for “samples.”

CCCCCCC(C)(C)c1cc(O)c2c(c1)OC(C)(C)[C@@H]1CC=C(C(=O)O)C[C@@H]21 [AJA, dimethylheptyl-THC-11-oic acid]
analgesic function ([1]; Dajani et al. 1999): potent analgesic function comparable with morphine
duration of analgesic effect ([1]; compared with morphine): lasted even longer than morphin
psychoactivity [2]: does not show the typical psychoactive effect
proteinase sensitivity of PPARα [3]: did not affect the proteinase sensitivity
trypsin-resistant PPARγ fragments (protection from trypsin digestion) ([4]; 20 μM AJA, 30 μg/ml trypsin, 30 or 60 min): Two prominent trypsin-resistant fragments of 30 and 24 kDa
proteinase-resistant PPARγ fragments, concentration dependence ([4]; 2, 20 and 100 μM AJA): proteinase-resistant PPARγ fragments were observed
